Reference: ChEMBL document CHEMBL1140561, “A phosphorylated prodrug for the inhibition of Pin1” (Bioorg Med Chem Lett, 2007)

Tests used:
[1] = molecular target: Peptidyl-prolyl cis-trans isomerase NIMA-interacting 1 (Homo sapiens, UniProt Q13526); test: Inhibition of Pin1 PPIase activity
A2780 = test: Antiproliferative activity against human A2780 cells; type: functional, cell-based

Peptidyl-prolyl cis-trans isomerase NIMA-interacting 1, sequence (Q13526 whole entry): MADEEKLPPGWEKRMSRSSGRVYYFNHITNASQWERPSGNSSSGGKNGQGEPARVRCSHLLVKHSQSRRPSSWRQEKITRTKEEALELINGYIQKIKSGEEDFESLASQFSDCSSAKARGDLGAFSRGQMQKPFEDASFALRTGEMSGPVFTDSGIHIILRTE

Row | IC50 [1] [µM] | IC50 (A2780) [µM] | SMILES
1 | 28.3 | 46.2 | O=C(N[C@H](/C=C1\CCC[C@H]1C(=O)NCCc1c[nH]c2ccccc12)COP(=O)(O)O)OCC1c2ccccc2-c2ccccc21
2 | – | 26.9 | CC(C)(C)C(=O)OCOP(=O)(OCOC(=O)C(C)(C)C)OC[C@@H](/C=C1\CCC[C@H]1C(=O)NCCc1c[nH]c2ccccc12)NC(=O)OCC1c2ccccc2-c2ccccc21
